# Tests used:
# [1] = test system: CD1 mice inoculated with MPTP (acute); assay: Acute MPTP model of Parkinson's disease in mice; assay type: in vivo
# Protocol: All the animals included for the experimental process were 12-week old males of the CD1 strain. The experiments were conducted strictly following the Guidance on the Operation of Animals (Scientific Procedures, Act. 1986). The animals had their respective quarantine period and were treated with maximum precaution to minimize possible contaminations during inoculations and handling.
# Forty animals were used in this assay and the treatments were conducted with a volume of 100 μl, according to the following regimens: • i) PBS+PBS+PBS regimen: 10 animals were initially treated with PBS with a daily dose for 2 days by subcutaneous (s.c.) route, on the second day the animals were inoculated with 4 doses of PBS, at intervals of 2 hours by intraperitoneal (i.p.) route. For the next 7 days they were administered a daily dose of PBS by s.c. route. • ii) PBS+MPTP+PBS regimen: 10 animals were initially treated with a daily dose for 2 days of PBS by s.c. route, on the second day the animals were inoculated with 4 doses of MPTP at 20 mg/Kg, at intervals of 2 hours by i.p. route. For the next 7 days they were administered a daily dose of PBS by s.c. route. • iii) NST0037+MPTP+NST0037 regimen: 10 animals were initially treated with a daily dose for 2 days of NST0037 at 50 mg/kg by s.c. route, on the second day the animals were inoculated with 4 doses of MPTP at 20 mg/Kg, at intervals of 2 hours by i.p. route. For the next 7 days they were administered a daily dose of NST0037 at 50 mg/kg by s.c. route.
# Before starting the treatments and once the treatment time of 7 days ended, the animals were subjected to a locomotor resistance test referred to as the Rotarod test for 2 minutes, recording the time the animals resisted walking over a cylinder which increased its speed from 4 to 40 r.p.m.
# Before starting the treatments and once the treatment time of 7 days ended, the animals were subjected to a strength test in the so-called Grip-strength test, recording the strength of gripping a bar in grams exerted by the animals with the front paws in triplicate.
# (§1) Once the treatment time of 7 days ended, the animals were sacrificed and the brains were dissected. The brain samples were processed and included in paraffin. For the analysis of neurodegeneration in the substantia nigra and the striatum, fluorescent Fluoro Jade B (FJB) staining was performed in 5 μm thick sagittal sections.
# as §1, with “the presence of dopaminergic neurons” for “neurodegeneration”, “the immunohistochemistry against the tyrosine-hydroxylase (TH) protein” for “fluorescent Fluoro Jade B (FJB) staining”
# [2] = test system: Hep G2 (human hepatocarcinoma) line; assay: Total cholesterol levels in hepatic cell line; assay type: cell-based; conditions: HepG2, acid compounds, 20 hours, absence of FBS
# Protocol: To carry out this assay, the compounds were activated with NaOH until the lactone form was completely opened.
# Both the Hep G2 (human hepatocarcinoma) line and the SK-N-MC (human neuroblastoma) line were obtained from the American Type Culture Collection (ATCC no. HB-8065 and HTB-10 respectively). In all cases strict rules of sterility were followed and the manipulation was performed in class II biological safety cabinets following European standard EN 12469. The cells maintained in passage were seeded in 96-well plates in MEM supplemented with 10% FBS, 2 mM L-glutamine, 1 mM sodium pyruvate, 0.1 mM non-essential amino acids and 0.05 mg/mL gentamicin. In the case of HepG2, 4×10^4 cells/well were seeded and in the case of SK-N-MC 5×10^4 cells/well were seeded. After 24 hours had elapsed from the seeding, the cells were deprived of FBS for 8 hours. The cells were then incubated with the treatments at various concentrations for 20 hours. After the incubation period, the cells were washed with PBS and lysed with a phosphate buffer with 0.5% Triton X-100. […]
# The total cholesterol was quantified by means of enzymatic and fluorometric techniques. […] The fluorescence intensity was determined at 530 nm of excitation and 580 nm of emission by means of a fluorometer. The results were normalized by protein, which was determined by means of the BCA technique.
# [3] = test system: Aβ(1-40) and Aβ(1-42) secreted by SK-N-MC cells overexpressing APP; assay: Secretion of β-amyloid peptide in SK-N-MC cells overexpressing APP (ELISA); assay type: cell-based, human
# Protocol: The assay was performed on human neuroblastoma SK-N-MC cells in culture from the American Type Culture Collection (ATCC), stably transfected with a construct carried by the APP gene (beta-amyloid precursor protein, Gene ID: 351) in isoform 695, which is the most frequent variant expressed in neurons, whereby overexpression of the APP protein is achieved. In all cases strict rules of sterility were followed and the manipulation was performed in class II biological safety cabinets following European standard EN 12469. […]
# The cells were incubated (at 37° C. and 5% CO2) with these treatments for 48 hours, 500 μl of conditioned medium then being collected to perform the measurements. […] The two most frequent Aβ species, 1-40 and 1-42, were measured. […] The amount of Aβ(1-40) and Aβ(1-42) of the conditioned medium was analyzed for each treatment by means of ELISA (Enzyme-linked immunosorbent assay), using the “beta amyloid 40 ELISA” and “beta amyloid 42 ELISA” kit (Biosource), following the recommendations of the manufacturer. The results were quantified by using an increasing concentration curve with synthetic peptides. […]
# [4] = NST0037+MPTP+NST0037, 50 mg/kg s.c., 7 days
# [5] = NST0037+MPTP+NST0037 vs PBS+MPTP+PBS, 7 days
smiles,measurement,setting,value
"CCC(CC)C(=O)O[C@H]1C[C@@H](C)C=C2C=C[C@H](C)[C@H](CC[C@@H]3C[C@@H](O)CC(=O)O3)[C@H]21 [NST0037, (1S,2S,6R,8S,8aR)-1,2,6,7,8,8a-hexahydro-3,7-dimethyl-8-[2-[(2R,4R)-tetrahydro-4-hydroxy-6-oxo-2H-pyran-2-yl]ethyl]-1-naphthalenyl-2-ethyl-butyrate]",motor resistance (Rotarod test),[1]; [4],prevents the motor deterioration of the animals
same,strength (Grip-strength test),[1]; [4],prevents the loss of strength induced by MPTP
same,survival after acute administration of MPTP,"[1]; NST0037+MPTP+NST0037, 50 mg/kg s.c., MPTP 4 x 20 mg/Kg i.p.",promotes the survival of the animals
same,dopaminergic neurons (tyrosine-hydroxylase) in substantia nigra and striatum,[1]; [5],larger number of TH-positive cells in the substantia nigra as well as a higher labeling intensity in the striatum
same,neurodegeneration (Fluoro Jade B) in substantia nigra and striatum,[1]; [5],number of cells in degeneration and positive for FJB significantly lower
same,reduction of total cholesterol levels,[2],more potent than simvastatin
same,secreted Aβ(1-40) with respect to control cells,"[3]; 10, 40 and 100 μM of NST0037, 48 hours",a reduction is obtained
same,secreted Aβ(1-42) with respect to control cells,"[3]; 10 and 40 μM of NST0037, 48 hours",a reduction is obtained

# — US20140309295A1, “ANTIEPILEPTIC, HYPOCHOLESTEROLEMIC AND NEUROPROTECTIVE COMPOUND” (NEURON BIOPHARMA, S.A., priority 2009, published 2014)
